According to US20190352341A1, “MODIFIED PEPTIDES AND THEIR USE FOR TREATING SYSTEMIC LUPUS ERYTHEMATOSUS” (IMMUPHARMA FRANCE SA, priority 2018, published 2019):
Several values for one entry are separate records, joined by “and”; a condition that tells them apart may be missing. Equal entries are not always repeated. Numbered stars: 1 amine (or outer) side, 2 acyl side, 3 side chain; on linkers, the order of the positions; unused ones are H or OH. Square brackets hold non-standard residues; d marks the D form. Peptide text beside a SMILES is read from it. ξ: configuration not given here. X1 = CSCC[C@H](NC(=N)[C@H](Cc1c[nH]cn1)N[*:1])C(=O)[*:2]; pS = N[C@@H](COP(=O)(O)O)C(=O)O; Ile(3ξ) = CCC(C)[C@H](N)C(=O)O

Assays:
Balb/c mice = experiment: 15-day ovalbumin-induced airway hypereosinophilia model, BAL cells; format: in vivo, mouse; set-up: Eosinophils / Neutrophils / T cells / B cells: unit not given here; conditions: for B cells / Eosinophils / Macrophages / Neutrophils / T cells / Total cells: BAL
Procedure: The P140 phosphopeptide was solubilized in sterile water (Braun) and 10× concentrate sterile saline was added to adjust osmolarity to 300 mosm. Osmolarity was controlled with a micro osmometer (Loser, type 15) and validated (302 mosm).
The P140 phosphopeptide was used in vivo at the dose of 4 mg/kg by intranasal (i.n.) and intravenous (i.v.) routes. Control animals received equivalent volumes (1 ml/kg for i.n. and 2 ml/kg for i.v.) of saline (Table 6).
Nine-week-old male Balb/c mice were sensitized by intraperitoneal (i.p.) injections of a mixture containing 50 μg OVA (Sigma-Aldrich) and 2 mg alum (Sigma-Aldrich) in 0.1 ml saline. Mice were challenged by i.n. administration of 25 μl of OVA on day 5, then 25 μl of OVA and/or saline on day 12, 13 and 14. Mice were treated by i.v. injection (2 ml/kg) or i.n. administration (1 ml/kg) of P140 or solvent on day 9 (See FIG. 12).
[…] Performing Bronchoalveolar Lavage in the Mouse. Curr Protoc Mouse Biol 2:167-175). Mice were anaesthetized IP (Ketamine 150 mg/kg-Xylasine 10 mg/kg). Blood was collected from the heart, centrifuged at 10,000 g for 2 min and serum stored at −20° C. After semi-excision of the trachea, a plastic cannula was inserted, and airspace washed with 0.5 ml of 0.9% NaCl injected with a 1 ml syringe. This procedure was performed 10 times. The initial concentrated supernatant of the 2 first lavages (volume=2×0.5 ml administered, ˜0.5 ml recovered) was collected for cytokine measurements. The remaining BAL fluid was centrifuged (300 g for 5 min, 4° C.), and cell pellets pooled. The cell pellet was suspended in 500 μl of 0.9% NaCl and used for total cell counts evaluated on a Muse® Cell Analyser. Differential cell counts were assessed by flow cytometry (LSRII® cytometer, BD Bioscience). BAL cells were added with FCblock (0.5 μl, 553142, BD Bioscience) in a black microplate, incubated for 20 min at room temperature. Then, marker antibodies were added: CD11c-FITC (557400, BD bioscience), Gr-1-Pe-eFluor610 (61-5931-82, eBioscience), CD11b-APC-Cy7 (557657, BD bioscience), CD45-AlexaFluor700 (103128, BioLegend), CD3-BV605 (564009, BD bioscience), CD19-PE-Cy7 (552854, BD bioscience). Antibodies were incubated with BAL cells for 30 min at room temperature before DAPI (5 μl, BD bioscience) addition, and flow cytometry was performed immediately.
Data are presented as means±SEM. Differences between groups were tested for statistical significance using one-way ANOVA followed by Tukey's post-test. For statistical analysis, control groups 1, 2 and 3 were pooled.

MRL/lpr B cells = conditions: cited from earlier work
[1] = OVA challenge, P140-IN 4 mg/kg day 9, individual mice NL415-2_6 to _20
[2] = OVA challenge, P140-IN, 4 mg/kg day 9, individual mice NL415-2_12 to _22
[3] = saline challenge, P140-IN 4 mg/kg day 9, individual mice NL415-2_2, _8
[4] = saline challenge, P140-IN, 4 mg/kg day 9, individual mice NL415-2_4, _15
[5] = i.v. 4 mg/kg, OVA-challenged mice

With `CCC(C)[C@H](NC(=O)[C@H](Cc1ccccc1)NC(=O)[C@H](C)NC(=O)[C@H](Cc1ccc(O)cc1)NC(=O)CNC(=O)[C@H](CCCNC(=N)N)NC(=O)[C@@H]1CCCN1C(=O)[C@H](CCCCN)NC(=O)CNC(=O)[C@H](COP(=O)(O)O)NC(=O)[C@H](CCCNC(=N)N)NC(=O)[C@H](CCCCN)NC(=O)[C@H](CO)NC(=O)[C@H](Cc1ccc(O)cc1)NC(=O)[C@@H](NC(=O)[C@H](CCSC)NC(=N)[C@H](Cc1c[nH]cn1)NC(=O)[C@@H](NC(=O)[C@@H](N)CCCNC(=N)N)C(C)CC)C(C)C)C(=O)N[C@@H](CCC(=O)O)C(=O)N[C@@H](Cc1ccc(O)cc1)C(=O)O` (some centres unmarked) [Compound P140] (H-R[Ile(3ξ)][X1]VYSKR[pS]GKPRGYAF[Ile(3ξ)]EY-OH) the B cells (Balb/c mice; [1]) was 25 606 and 32 251 and 26 562 and 23 383 and 33 156 and 13 236, the Eosinophils (Balb/c mice; [1]) was 490 306 and 497 948 and 737 671 and 839 841 and 792 249 and 615 171 and the Macrophages (Balb/c mice; [1]) was 271 110 and 322 340 and 247 391 and 538 954 and 436 210 and 286 509. For the same compound, the Neutrophils (Balb/c mice; [1]) was 57 542 and 60 787 and 62 354 and 95 173 and 47 346 and 65 366, the T cells (Balb/c mice; [1]) was 44 036 and 61 800 and 73 159 and 118 360 and 101 951 and 61 293 and the Total cells (Balb/c mice; [1]) was 862 995 and 942 875 and 1 120 576 and 1 592 328 and 1 377 755 and 1 028 339. The B cells (Balb/c mice; [2]) was 10 219 and 15 209 and 14 027 and 17 417 and 11 003 and 10 922, the Eosinophils (Balb/c mice; [2]) was 425 928 and 272 763 and 473 105 and 470 027 and 327 186 and 429 469 and the Macrophages (Balb/c mice; [2]) was 439 265 and 442 055 and 244 523 and 293 070 and 342 134 and 379 565. For the same compound, the Neutrophils (Balb/c mice; [2]) was 42 783 and 21 442 and 59 616 and 76 867 and 40 275 and 31 756, the T cells (Balb/c mice; [2]) was 41 744 and 43 881 and 32 677 and 55 502 and 28 857 and 45 030 and the Total cells (Balb/c mice; [2]) was 949 720 and 780 142 and 809 921 and 895 467 and 738 452 and 885 821. The B cells (Balb/c mice; [3]) was 112 and 242, the Eosinophils (Balb/c mice; [3]) was 168 and 103 and the Macrophages (Balb/c mice; [3]) was 388 102 and 434 029. For the same compound, the Neutrophils (Balb/c mice; [3]) was 56 and 61, the T cells (Balb/c mice; [3]) was 4 135 and 4 180 and the Total cells (Balb/c mice; [3]) was 392 461 and 438 573. For the same compound, the B cells (Balb/c mice; [4]) was 70 and 266, the Eosinophils (Balb/c mice; [4]) was 110 and 166 and the Macrophages (Balb/c mice; [4]) was 335 658 and 335 200. For the same compound, the Neutrophils (Balb/c mice; [4]) was 259 and 133, the T cells (Balb/c mice; [4]) was 5311 and 4 790 and the Total cells (Balb/c mice; [4]) was 341 738 and 340 389. The “Number of cells recovered in BAL fluid as compared to vehicle (saline)” value (Balb/c mice; i.n. or i.v., control mice challenged with saline) was “little effect per se”, the “Inflammatory cell recruitment in BAL” value (Balb/c mice; i.n. route, OVA-challenged mice) was “little effect” and the “B cells recruitment in BAL, change vs OVA group” value (Balb/c mice; [5]) was −42%. For the same compound, the “Eosinophil recruitment in BAL, change vs OVA group” value (Balb/c mice; [5]) was −50%, the “T cells recruitment in BAL, change vs OVA group” value (Balb/c mice; [5]) was −66% and the “Neutrophils recruitment in BAL, change vs OVA group” value (Balb/c mice; i.v. 4 mg/kg, OVA-challenged mice, not significant) was −38%. For the same compound, the “Autophagy markers SQSTM1 and MAP1LC3 in MRL/lpr B cells” value (MRL/lpr B cells; after P140 treatment (Page et al., 2011)) was “accumulation” and the “Expression of HSPA8 and LAMP-2A in MRL/lpr B cells” value (MRL/lpr B cells; after treating mice with P140 peptide (Page et al., 2011; Macri et al.)) was “down-regulated”.
